The target in one assay is human RIPK1 (Homo sapiens (Human), UniProt Q13546). Kind of assay: KINOMEscan binding assay, human RIPK1. Particulars: Table 21. In a few lines:
(§1)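 Binding constants were derived by fitting qPCR-quantified bead-retained kinase against compound concentration to the Hill equation, slope set at −1. Compound series were 3-fold over 11 points with 1% DMSO; most top concentrations were 30,000 nM. Kinases were T7-phage-tagged or HEK-293-produced with DNA tags.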

A further assay concerns the target human RIPK3 (Homo sapiens (Human), UniProt Q9Y572). Briefly: KINOMEscan binding assay, human RIPK3. Particulars: Table 21. The essentials:
as §1

In the next assay the target is endogenous MLKL in MDF (Mus musculus (Mouse), UniProt Q9D2Y4). Briefly: Degradation assay: endogenous MLKL in MDF (western blot). The note with it: MDF cells, 24 h incubation with compound, MLKL adjusted for loading with GAPDH, normalized to DMSO only control, read-out: Degradation of endogenous MLKL in MDF (DC50 cell-based assay). The essentials: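 MDF (seeded the day before) or U937 cells were treated 24 h at 37 °C, 10% CO2 with compound at 10, 2, 0.4, 0.08 and 0.016 μM final. Endogenous MLKL was quantified by western blot (anti-MLKL 3H1), normalized to GAPDH. Percent degradation was taken relative to DMSO control.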
(In general: Immunoblotting shows a protein as a band on a membrane.)

human RIPK1, sequence (Q13546 whole entry): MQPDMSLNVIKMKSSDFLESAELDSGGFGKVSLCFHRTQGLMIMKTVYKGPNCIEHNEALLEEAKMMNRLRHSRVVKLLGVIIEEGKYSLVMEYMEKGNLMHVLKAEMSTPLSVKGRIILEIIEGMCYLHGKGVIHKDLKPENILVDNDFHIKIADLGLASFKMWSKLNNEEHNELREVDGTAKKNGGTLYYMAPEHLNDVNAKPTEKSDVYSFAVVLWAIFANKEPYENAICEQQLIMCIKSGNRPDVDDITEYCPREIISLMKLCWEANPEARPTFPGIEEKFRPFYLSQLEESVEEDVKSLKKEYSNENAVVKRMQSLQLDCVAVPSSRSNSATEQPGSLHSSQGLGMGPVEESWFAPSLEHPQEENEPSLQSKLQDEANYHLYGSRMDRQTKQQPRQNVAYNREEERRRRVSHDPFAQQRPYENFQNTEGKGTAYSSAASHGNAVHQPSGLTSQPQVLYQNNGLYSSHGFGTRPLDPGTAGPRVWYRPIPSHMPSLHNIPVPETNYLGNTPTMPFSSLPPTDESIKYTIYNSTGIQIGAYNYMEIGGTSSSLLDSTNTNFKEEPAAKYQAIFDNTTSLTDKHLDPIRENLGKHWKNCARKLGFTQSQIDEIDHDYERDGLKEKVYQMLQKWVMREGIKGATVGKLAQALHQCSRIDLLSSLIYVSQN
human RIPK3, sequence (Q9Y572 whole entry): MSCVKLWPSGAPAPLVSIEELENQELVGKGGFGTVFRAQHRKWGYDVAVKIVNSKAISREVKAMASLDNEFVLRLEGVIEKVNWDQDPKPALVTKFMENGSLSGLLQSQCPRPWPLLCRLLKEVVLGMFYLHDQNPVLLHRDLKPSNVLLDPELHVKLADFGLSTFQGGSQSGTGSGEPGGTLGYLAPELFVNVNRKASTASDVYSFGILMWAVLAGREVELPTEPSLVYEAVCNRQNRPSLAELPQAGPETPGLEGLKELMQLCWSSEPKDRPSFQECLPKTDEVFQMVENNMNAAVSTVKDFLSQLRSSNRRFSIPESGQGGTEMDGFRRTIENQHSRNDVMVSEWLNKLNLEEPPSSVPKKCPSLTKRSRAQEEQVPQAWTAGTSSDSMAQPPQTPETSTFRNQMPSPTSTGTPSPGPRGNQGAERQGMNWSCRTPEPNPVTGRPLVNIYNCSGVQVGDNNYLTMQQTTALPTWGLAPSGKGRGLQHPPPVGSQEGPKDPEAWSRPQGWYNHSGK
endogenous MLKL in MDF, sequence (Q9D2Y4 whole entry): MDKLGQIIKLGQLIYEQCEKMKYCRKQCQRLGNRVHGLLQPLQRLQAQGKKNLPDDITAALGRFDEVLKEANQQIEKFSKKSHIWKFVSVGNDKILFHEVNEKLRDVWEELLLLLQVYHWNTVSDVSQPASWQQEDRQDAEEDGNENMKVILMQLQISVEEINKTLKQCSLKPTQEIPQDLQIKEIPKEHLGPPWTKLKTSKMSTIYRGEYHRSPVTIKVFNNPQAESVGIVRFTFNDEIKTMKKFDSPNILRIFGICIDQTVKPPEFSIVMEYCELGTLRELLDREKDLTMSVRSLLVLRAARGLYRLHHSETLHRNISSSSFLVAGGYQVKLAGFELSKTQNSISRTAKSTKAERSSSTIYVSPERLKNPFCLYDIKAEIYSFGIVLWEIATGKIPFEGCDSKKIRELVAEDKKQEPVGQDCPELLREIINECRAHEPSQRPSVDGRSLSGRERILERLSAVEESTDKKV

The term Kd denotes the free concentration of one partner at which half of the binding sites on the other are occupied at equilibrium, for simple one-to-one binding. A low value points to a tighter complex. Take `Nc1ncc(-c2cnn(C3CCOCC3)c2)c2[nH]nc(-c3ccc(NS(=O)(=O)C(F)F)c(OCc4cccc(Cl)c4)c3)c12` [Compound 131]: the Kd at human RIPK1 and on human RIPK3 was > 10 µM in each case. As usually defined, the DC50 is the concentration at which degradation of the target reaches its halfway point. `C[C@H](Oc1cc(-c2nn(C)c3c(-c4cnn(CCCCCCCOc5cccc6c5C(=O)N(C5CCC(=O)NC5=O)C6=O)c4)cnc(N)c23)ccc1NS(=O)(=O)C(F)F)c1ccc(F)cc1` (some centres unmarked) [Compound 1031, N-(4-{4-amino-7-[1-(7-{[2-(2,6-dioxopiperidin-3-yl)-1,3-dioxo-2,3-dihydro-1H-isoindol-4-yl]oxy}heptyl)-1H-pyrazol-4-yl]-1-methyl-1H-pyrazolo[4,3-c]pyridin-3-yl}-2-[(1 S)-1-(4-fluorophenyl)ethoxy]phenyl)-1,1-difluoromethanesulfonamide]: at endogenous MLKL in MDF, the DC50 is < 1 µM.

As for “N-(4-(4-amino-1-methyl-7-(1-(1,2,2-trimethylpiperidin-4-yl)-1H-pyrazol-4-yl)-1H-pyrazolo[4,3-c]pyridin-3-yl)-2-((S)-1-(4-fluorophenyl)ethoxy)phenyl)-1,1-difluoromethanesulfonamide [Compound 113]”, the dissociation constant Kd at human RIPK1 and at human RIPK3 was > 10 µM each time.

The values are drawn from patent publication US20250115598A1 (Anaxis Pharma Pty Ltd, priority 2021, published 2025).
